# Results: patent US20130072430A1, “METHODS FOR TREATMENT OR PROPHYLAXIS OF KIDNEY OR LIVER DYSFUNCTION” (NPS PHARMACEUTICALS, INC., priority 2010, published 2013)
# System: Human patients with short bowel syndrome
# Assay: Example 1: kidney diagnostic biomarkers (urea nitrogen, creatinine, GFR) in short bowel syndrome patients, every four weeks for 24 weeks
# Type: in vivo
# Method: Human patients with short bowel syndrome were divided into three groups: a control group (16 total individuals) to receive placebo, an experimental group (35 total individuals) to receive teduglutide at 0.05 mg/kg/day throughout the study, and an experimental group (32 total individuals) to receive teduglutide at 0.1 mg/kg/day throughout the study. Patients were treated by subcutaneous injection of placebo or the appropriate dose of teduglutide. As individuals with short bowel syndrome are likely to experience associated liver and kidney disease, known biomarkers of liver and kidney function were monitored every four weeks, for 24 weeks. The liver biomarkers tested included total bilirubin, ALT and AST and ALP. The kidney biomarkers tested included urea nitrogen, creatinine and GFR. Before administration of placebo or teduglutide, diagnostic biomarker levels were tested to establish a baseline for each individual.
# To visualize the effect of GLP-2 on the levels of the diagnostic biomarkers, the average change from baseline was calculated for the placebo and teduglutide treated groups for each visit after a baseline was established. The average change from baseline of each group is depicted in FIGS. […]. The numerical figures for each diaanostic biomarker at each time point are depicted in Table 1.
# The raw data for this sorting is reproduced in Table 2 below.
# [1] = Week 12, range >5%, teduglutide 0.1 mg/kg/day
# [2] = Week 12, range −5%<= and <=5%, teduglutide 0.05 mg/kg/day
# [3] = Week 12, range −5%<= and <=5%, teduglutide 0.1 mg/kg/day
# [4] = Week 16, range <−5%, teduglutide 0.05 mg/kg/day
# [5] = Week 16, range <−5%, teduglutide 0.1 mg/kg/day
# [6] = Week 16, range >5%, teduglutide 0.05 mg/kg/day
# [7] = Week 16, range >5%, teduglutide 0.1 mg/kg/day
# [8] = Week 16, range −5%<= and <=5%, teduglutide 0.05 mg/kg/day
# [9] = Week 16, range −5%<= and <=5%, teduglutide 0.1 mg/kg/day
# [10] = Week 20, range <−5%, teduglutide 0.05 mg/kg/day
# [11] = Week 20, range <−5%, teduglutide 0.1 mg/kg/day
# [12] = Week 20, range >5%, teduglutide 0.05 mg/kg/day
# [13] = Week 20, range >5%, teduglutide 0.1 mg/kg/day
# [14] = Week 20, range −5%<= and <=5%, teduglutide 0.05 mg/kg/day
# [15] = Week 20, range −5%<= and <=5%, teduglutide 0.1 mg/kg/day
# [16] = Week 24, range <−5%, teduglutide 0.05 mg/kg/day
# [17] = Week 24, range <−5%, teduglutide 0.1 mg/kg/day
# [18] = Week 24, range >5%, teduglutide 0.05 mg/kg/day
# [19] = Week 24, range >5%, teduglutide 0.1 mg/kg/day
# [20] = Week 24, range −5%<= and <=5%, teduglutide 0.05 mg/kg/day
# [21] = Week 24, range −5%<= and <=5%, teduglutide 0.1 mg/kg/day
smiles,measurement,setting,value
CC[C@H](C)[C@H](NC(=O)[C@H](Cc1ccccc1)NC(=O)[C@H](CC(=O)O)NC(=O)[C@H](CCCNC(=N)N)NC(=O)[C@H](C)NC(=O)[C@H](C)NC(=O)[C@H](CC(C)C)NC(=O)[C@H](CC(N)=O)NC(=O)[C@H](CC(=O)O)NC(=O)[C@H](CC(C)C)NC(=O)[C@@H](NC(=O)[C@@H](NC(=O)[C@H](CC(N)=O)NC(=O)[C@H](CCSC)NC(=O)[C@H](CCC(=O)O)NC(=O)[C@H](CC(=O)O)NC(=O)[C@H](CO)NC(=O)[C@H](Cc1ccccc1)NC(=O)[C@H](CO)NC(=O)CNC(=O)[C@H](CC(=O)O)NC(=O)CNC(=O)[C@@H](N)Cc1c[nH]cn1)[C@@H](C)O)[C@@H](C)CC)C(=O)N[C@@H](CC(N)=O)C(=O)N[C@@H](Cc1c[nH]c2ccccc12)C(=O)N[C@@H](CC(C)C)C(=O)N[C@H](C(=O)N[C@@H](CCC(N)=O)C(=O)N[C@H](C(=O)N[C@@H](CCCCN)C(=O)N[C@H](C(=O)N[C@H](C(=O)N[C@@H](CC(=O)O)C(=O)O)[C@@H](C)O)[C@@H](C)CC)[C@@H](C)O)[C@@H](C)CC [teduglutide],"CREATININE (RATE BLANKED) change from baseline: patients in range, n(%)",[1],17(53.1%)
same,"GFR change from baseline: patients in range, n(%)",[1],9(28.1%)
same,"UREA NITROGEN change from baseline: patients in range, n(%)",[1],14(43.8%)
same,"CREATININE (RATE BLANKED) change from baseline: patients in range, n(%)",[2],4(11.4%)
same,"GFR change from baseline: patients in range, n(%)",[2],5(14.3%)
same,"UREA NITROGEN change from baseline: patients in range, n(%)",[2],4(11.4%)
same,"CREATININE (RATE BLANKED) change from baseline: patients in range, n(%)",[3],4(12.5%)
same,"GFR change from baseline: patients in range, n(%)",[3],10(31.3%)
same,"UREA NITROGEN change from baseline: patients in range, n(%)",[3],3(9.4%)
same,"CREATININE (RATE BLANKED) change from baseline: patients in range, n(%)",[4],8(22.9%)
same,"GFR change from baseline: patients in range, n(%)",[4],7(20.0%)
same,"UREA NITROGEN change from baseline: patients in range, n(%)",[4],12(34.3%)
same,"CREATININE (RATE BLANKED) change from baseline: patients in range, n(%)",[5],10(31.3%)
same,"GFR change from baseline: patients in range, n(%)",[5],12(37.5%)
same,"UREA NITROGEN change from baseline: patients in range, n(%)",[5],9(28.1%)
same,"CREATININE (RATE BLANKED) change from baseline: patients in range, n(%)",[6],8(22.9%)
same,"GFR change from baseline: patients in range, n(%)",[6],11(31.4%)
same,"UREA NITROGEN change from baseline: patients in range, n(%)",[6],10(28.6%)
same,"CREATININE (RATE BLANKED) change from baseline: patients in range, n(%)",[7],12(37.5%)
same,"GFR change from baseline: patients in range, n(%)",[7],12(37.5%)
same,"UREA NITROGEN change from baseline: patients in range, n(%)",[7],9(28.1%)
same,"CREATININE (RATE BLANKED) change from baseline: patients in range, n(%)",[8],12(34.3%)
same,"GFR change from baseline: patients in range, n(%)",[8],10(28.6%)
same,"UREA NITROGEN change from baseline: patients in range, n(%)",[8],6(17.1%)
same,"CREATININE (RATE BLANKED) change from baseline: patients in range, n(%)",[9],8(25.0%)
same,"GFR change from baseline: patients in range, n(%)",[9],6(18.8%)
same,"UREA NITROGEN change from baseline: patients in range, n(%)",[9],12(37.5%)
same,"CREATININE (RATE BLANKED) change from baseline: patients in range, n(%)",[10],9(25.7%)
same,"GFR change from baseline: patients in range, n(%)",[10],10(28.6%)
same,"UREA NITROGEN change from baseline: patients in range, n(%)",[10],13(37.1%)
same,"CREATININE (RATE BLANKED) change from baseline: patients in range, n(%)",[11],7(21.9%)
same,"GFR change from baseline: patients in range, n(%)",[11],11(34.4%)
same,"UREA NITROGEN change from baseline: patients in range, n(%)",[11],12(37.5%)
same,"CREATININE (RATE BLANKED) change from baseline: patients in range, n(%)",[12],10(28.6%)
same,"GFR change from baseline: patients in range, n(%)",[12],10(28.6%)
same,"UREA NITROGEN change from baseline: patients in range, n(%)",[12],7(20.0%)
same,"CREATININE (RATE BLANKED) change from baseline: patients in range, n(%)",[13],13(40.6%)
same,"GFR change from baseline: patients in range, n(%)",[13],8(25.0%)
same,"UREA NITROGEN change from baseline: patients in range, n(%)",[13],11(34.4%)
same,"CREATININE (RATE BLANKED) change from baseline: patients in range, n(%)",[14],8(22.9%)
same,"GFR change from baseline: patients in range, n(%)",[14],7(20.0%)
same,"UREA NITROGEN change from baseline: patients in range, n(%)",[14],7(20.0%)
same,"CREATININE (RATE BLANKED) change from baseline: patients in range, n(%)",[15],9(28.1%)
same,"GFR change from baseline: patients in range, n(%)",[15],10(31.3%)
same,"UREA NITROGEN change from baseline: patients in range, n(%)",[15],6(18.8%)
same,"CREATININE (RATE BLANKED) change from baseline: patients in range, n(%)",[16],8(22.9%)
same,"GFR change from baseline: patients in range, n(%)",[16],8(22.9%)
same,"CREATININE (RATE BLANKED) change from baseline: patients in range, n(%)",[17],11(34.4%)
same,"GFR change from baseline: patients in range, n(%)",[17],6(18.8%)
same,"UREA NITROGEN change from baseline: patients in range, n(%)",[17],14(43.8%)
same,"CREATININE (RATE BLANKED) change from baseline: patients in range, n(%)",[18],9(25.7%)
same,"GFR change from baseline: patients in range, n(%)",[18],10(28.6%)
same,"UREA NITROGEN change from baseline: patients in range, n(%)",[18],7(20.0%)
same,"CREATININE (RATE BLANKED) change from baseline: patients in range, n(%)",[19],9(28.1%)
same,"GFR change from baseline: patients in range, n(%)",[19],14(43.8%)
same,"UREA NITROGEN change from baseline: patients in range, n(%)",[19],13(40.6%)
same,"CREATININE (RATE BLANKED) change from baseline: patients in range, n(%)",[20],9(25.7%)
same,"GFR change from baseline: patients in range, n(%)",[20],8(22.9%)
same,"UREA NITROGEN change from baseline: patients in range, n(%)",[20],2(5.7%)
same,"CREATININE (RATE BLANKED) change from baseline: patients in range, n(%)",[21],9(28.1%)
same,"GFR change from baseline: patients in range, n(%)",[21],9(28.1%)
same,"UREA NITROGEN change from baseline: patients in range, n(%)",[21],2(6.3%)
same,percent of the group experiencing a decrease in GFR greater than 5% versus placebo,both groups receiving teduglutide,always less than the percent of the group receiving placebo
same,"creatinine levels, average change versus baseline (FIG. 9)",groups receiving teduglutide,remained stable or decreased slightly
